We go through one compound from patent publication US4179451A, “Novel hydroxy substituted 15-deoxy-5-cis-prostenoic acids and esters” (American Cyanamid Company, priority 1978, dated 1979).

Experiment [1] concerns bronchospasms elicited by histamine. Put plainly: Bronchodilator Activity (Konzett Assays), histamine. The following applies: Cavia porcellus; three logarithmic cumulative intravenous doses; spasmogen histamine; read-out: ED50, Spasmogenic Agent histamine. Format: in vivo, guinea pigs. How it is done:
(§1) The compounds of this invention are useful as bronchodilators for the treatment of asthma and chronic bronchitis. Bronchodilator activity is determined in guinea pigs against bronchospasms elicited by intravenous injections of 5-hydroxytryptamine, histamine or acetylcholine by the Konzett procedure. [See J. Lulling, P. Lievens, F. El Sayed and J. Prignot, Arzneimittel-Forschung, 18, 955 (1968).]
(§2) In Table IV which follows bronchodilator activity for representative compounds of this invention against one or more of three spasmogenic agents is expressed as an ED50 determined from the results obtained with three logarithmic cummulative intravenous doses. In this assay, these compounds of this invention provide an effect of longer duration than does natural l-PGE1 or l-PGE2.

The test system of experiment [2] is mean arterial blood pressure. The experiment is described as follows: Hypotensive Response (normotensive rat). The format is in vivo, Male Wistar strain rats. The note with it: intravenous 2.1 mg./kg.; anesthetized rat. How it is done: This procedure is a modification of the techniques described by Pike et al., Prostaglandins, Nobel Symposium 2, Stockholm, June, 1966; p. 165.
Male Wistar strain rats (Royal Hart Farms) averaging approximately 250 grams in weight were fastened to rat boards in a supine position by means of canvas vests and limb ties. The femoral area was infiltrated subcutaneously with lidocaine and the iliac artery and vein were exposed and cannulated. Arterial blood pressure (systolic/diastolic) was recorded using a Statham P23 Bb pressure transducer-Offner dynograph system. To obtain a stable blood pressure, the animals were anethetized before use with pentobarbital, 30 mg./kg. of body weight intravenously, and also were given hexamethoxium bitartrate, 2 mg./kg. of body weight intravenously. The test compounds were prepared by ultrasonic dispersion in a Saline-Tween 80® vehicle. A constant intravenous dose volume of 0.5 ml. was administered and test doses ranged from 0.1 to 10.0 mg./kg. of body weight.
In Table V below are recorded the percent decrease from normal of mean arterial blood pressure induced by given doses of representative compounds of this invention.

Experiment [3] has as its system basal gastric acid secretion. The experiment is described as follows: Inhibition of basal gastric acid secretion in the Acute Gastric Fistula Rat. Format: in vivo, Female Sprague-Dawley rats. The following applies: 1 h, intraduodenal 2.5 mg./kg., after 60 minutes, read-out: % Inhibition of Total Acid or Output.
Experiment [4] concerns basal gastric acid secretion. The experiment is described as above. The format is in vivo, Female Sprague-Dawley rats. The note with it: 1 h, intraduodenal 10 mg./kg., after 60 minutes, read-out: % Inhibition of Total Acid or Output. Here is the method:
Inhibition of basal gastric acid secretion can be determined by the following procedure. Female Sprague-Dawley rats weighing 140-160 grams are fastened in individual cages for 18-24 hours. The rats are then lightly anesthetized with ether and their front teeth extracted to avoid destruction of the plastic cannula. A midline incision is then made and the stomach and duodenum exposed. A flanged polyvinyl tube is inserted into the fundic portion of the stomach and secured with a purse string suture line using 4-O Mersilene. The rat is then dosed by injection of the compound into the duodenum (1.0 ml. per 100 gram body weight). After dosing, the abdominal wall and skin are closed using metal wound clips. The rat is replaced in a cage containing a longitudinal slit to allow the polyvinyl tube to hang freely. An 8 ml. plastic collecting tube is attached to the flanged cannula and hangs freely below the cage. The first 30 minute sample is discarded designating this time as zero. The collecting tube is attached again and samples removed at the end of 60 and/or 120 minutes. The hourly samples are then transferred to a 15 ml. centrifuge and centrifuged for 5-10 minutes. Total and sediment volume are then recorded with supernatent volume being used as volume of secretion. A 1 ml. or less aliquot is then removed and placed in a 50 ml. beaker containing 10 ml. of distilled water. This sample is then titrated using 0.01 N to Na H to pH 7.0 using a Beckman zeromatic pH meter. Volume, titratable acidity (meq/L) and total acid output (μeq/hour) are recorded. Percent inhibition is determined by comparison with the appropriate control. Groups of three rats are used for preliminary testing, and groups of six rats are used for dose-response evaluations. All compounds are administered in a vehicle consisting of 0.5% methocel, 0.4% tween 80, and saline at a constant volume of 1 ml./100 gram rat. Samples are dispersed by sonification. Percent inhibition is calculated on basis of concurrent vehicle control.
In Table III which follows is given the effect on total acid output after 60 minutes of a 10 mg./kg. intraduodenal dose of representative compounds of this invention.

The subject of experiment [5] is bronchospasms elicited by 5-hydroxytryptamine. The experiment is described as follows: Bronchodilator Activity (Konzett Assays), 5-hydroxytryptamine. The format is in vivo, guinea pigs. The note with it: Cavia porcellus; three logarithmic cumulative intravenous doses; spasmogen 5-hydroxytryptamine; read-out: ED50, Spasmogenic Agent 5-hydroxytryptamine. How it is done:
as §1, §2

For experiment [6], the system named is gastric acid secretion. Put plainly: Gastric acid secretion inhibitory action (Shay rat procedure). The format is in vivo, rats (male, CFE strain).
Experiment [7] concerns ulcerogenic properties of indomethacin. Put plainly: protection against the ulcerogenic properties of indomethacin. Format: in vivo, Rats. The following applies: indomethacin 20 mg./kg. s.c., score 0 (normal stomach) to 4, control 3.0. Here is the method: The protection against the ulcerogenic properties of indomethacin was determined in the following manner. Rats were starved for 48 hours (water was given ad libitum). Indomethacin (20 mg./kg. of body weight) was administered by the subcutaneous route and one-half the dose of the test compound was administered by gavage at the same time. After three hours, the second half of the test compound was administered also by gavage. Five hours after the administration of indomethacin the animals were decapitated and the stomachs removed. The stomachs were washed with distilled water, blotted on gauze, cut along the larger curvature, and the contents rinsed with distilled water. The stomachs were spread out, pinned on a cork and visualized under magnifying glass for ulcers. The criteria for scoring of ulcers was as previously reported [Abdel-Galil et al. Brit. J. Pharmac. Chemotherapy 33:1-14 (1968)].
1--Petechial hemorrhage or pin point ulcer
3--Many ulcers, a few large
4--Many ulcers, mainly large
A difference of at least 0.7 unit between the scores for control animals (treated with indomethacin but not test compound) and animals treated with indomethacin and test compound is considered indicative of activity from the test compound. […]

In experiment [8] the test system is bronchospasms elicited by acetylcholine. Put plainly: Bronchodilator Activity (Konzett Assays), acetylcholine. The note with it: Cavia porcellus; three logarithmic cumulative intravenous doses; spasmogen acetylcholine; read-out: ED50, Spasmogenic Agent Acetylcholine. Format: in vivo, guinea pigs. How it is done:
as §1, §2

For the compound `CCCCC(O)C/C=C/[C@H]1[C@H](O)CC(=O)[C@@H]1C/C=C\CCCC(=O)O` (relative stereo) [9-oxo-11α,16-dihydroxy-5-cis; 13-trans-prostadienoic acid], the ED50 – broadly, the midpoint of the dose-response relation – in experiment [1] turned out to be 2.1 µg/kg; in experiment [5], 3.6 µg/kg; in experiment [8] it was 17.3 µg/kg. In addition, the “% Decrease in Mean Arterial Blood Pressure” value in experiment [2] is recorded as 27%. In addition, the inhibition in vivo at 2.5 mg/kg in experiment [3] was 42%. Further, in experiment [4], the inhibition in vivo at 10 mg/kg came to 69%. For the same compound, the “Percent Inhibition” value in experiment [6] (subcutaneous dose 0.4 mg./kg.) was 35%; in experiment [6] (subcutaneous dose 0.8 mg./kg.) it was 44%; in experiment [6] (subcutaneous dose 1.6 mg./kg.), 48%. Besides, the Score treated worked out at 2.0 in experiment [7] (total oral dose 0.39 mg./kg. of body weight) and 1.0 in experiment [7] (total oral dose 0.78 mg./kg. of body weight).
